Source: US8377884B2, “Variants of C-type natriuretic peptides” (Biomarin Pharmaceutical Inc., priority 2007, dated 2013)
“Also recorded” adds a separate entry of the source. Like-named read-outs stand apart in the source and are kept apart here. Bridge positions count the residues as written; N and C are the ends. Square brackets hold non-standard residues; d marks the D form. Peptide text beside a SMILES is read from it. * marks the point of attachment. CH3O(CH2CH2O)11CH2CH2CO = COCCOCCOCCOCCOCCOCCOCCOCCOCCOCCOCCOCCC(=O)*; Tle = CC(C)(C)[C@H](N)C(=O)O

What was measured:
NPR-B = biological target: T1, NPR-B (Mus musculus, UniProt Q6VVW5); assay: Stimulation of cGMP production in NIH3T3 cells; type: cell-based, Murine; conditions: for cGMP response relative to 1 uM CNP22 (%) at 0.01 µM: read-out: cGMP Response rel. to 1 uM CNP22, 10 nM; for cGMP response relative to 1 uM CNP22 (%) at 1 µM: read-out: cGMP Response rel. to 1 uM CNP22, 1 uM
T1 construct: Murine NIH3T3 cells express endogenously the CNP signaling receptor, NPR-B; endogenous in cells; host or cells: NIH3T3 (murine fibroblasts)
T1 sequence (Q6VVW5 17-1047): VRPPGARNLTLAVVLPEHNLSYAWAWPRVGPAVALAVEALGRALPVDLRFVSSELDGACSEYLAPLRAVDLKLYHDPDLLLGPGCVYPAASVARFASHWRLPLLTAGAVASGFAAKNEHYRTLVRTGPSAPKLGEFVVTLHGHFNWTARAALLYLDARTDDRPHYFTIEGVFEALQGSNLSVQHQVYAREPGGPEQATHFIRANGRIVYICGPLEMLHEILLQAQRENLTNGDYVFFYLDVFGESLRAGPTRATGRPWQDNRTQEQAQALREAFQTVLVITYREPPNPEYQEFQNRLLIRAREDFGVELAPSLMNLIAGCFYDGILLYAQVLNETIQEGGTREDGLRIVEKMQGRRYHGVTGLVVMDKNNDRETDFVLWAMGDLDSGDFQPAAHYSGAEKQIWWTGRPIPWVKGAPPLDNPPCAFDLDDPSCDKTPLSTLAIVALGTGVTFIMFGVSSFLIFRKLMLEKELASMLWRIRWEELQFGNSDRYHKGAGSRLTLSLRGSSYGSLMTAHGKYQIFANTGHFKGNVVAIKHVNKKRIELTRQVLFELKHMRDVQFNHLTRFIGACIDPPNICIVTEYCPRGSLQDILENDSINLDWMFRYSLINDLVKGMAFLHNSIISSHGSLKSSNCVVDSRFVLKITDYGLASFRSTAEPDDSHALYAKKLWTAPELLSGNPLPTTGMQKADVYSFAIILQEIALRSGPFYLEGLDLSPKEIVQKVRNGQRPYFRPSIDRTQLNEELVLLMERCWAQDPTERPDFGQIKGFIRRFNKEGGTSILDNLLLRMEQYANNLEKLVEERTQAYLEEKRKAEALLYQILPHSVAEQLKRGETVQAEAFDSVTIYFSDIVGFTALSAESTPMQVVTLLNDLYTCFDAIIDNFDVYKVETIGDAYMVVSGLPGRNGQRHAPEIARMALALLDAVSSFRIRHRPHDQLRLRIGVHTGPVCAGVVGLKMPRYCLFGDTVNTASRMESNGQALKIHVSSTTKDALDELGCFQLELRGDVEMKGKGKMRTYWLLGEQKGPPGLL

Recombinant human NEP = Recombinant human NEP (Homo sapiens, UniProt P08473); assay: in vitro
In short: (§1)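 Recombinant human NEP (1 ug/mL final) incubated with 100 uM CNP variant in 0.1 M Tris, pH 7, at 37° C for various times, then quenched with EDTA (10 mM final) and heat. Samples reduced and analysed by HPLC and mass spectrometry. Half-life derived from loss of intact variant over time.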

[1] = biological target: neutral endopeptidase (NEP) (Homo sapiens, UniProt P08473); assay: in vitro; conditions: human, pH 7
In short: as §1

[2] = NIH3T3 cells, 10 nM natriuretic peptide, normalized to cell number and cGMP production with 1 uM wtCNP22
[3] = NIH3T3 cells, 1 uM natriuretic peptide, normalized to cell number and cGMP production with 1 uM wtCNP22
[4] = in vitro NEP cleavage assay, assay period 160 minutes

Recombinant human NEP, sequence (P08473 whole entry): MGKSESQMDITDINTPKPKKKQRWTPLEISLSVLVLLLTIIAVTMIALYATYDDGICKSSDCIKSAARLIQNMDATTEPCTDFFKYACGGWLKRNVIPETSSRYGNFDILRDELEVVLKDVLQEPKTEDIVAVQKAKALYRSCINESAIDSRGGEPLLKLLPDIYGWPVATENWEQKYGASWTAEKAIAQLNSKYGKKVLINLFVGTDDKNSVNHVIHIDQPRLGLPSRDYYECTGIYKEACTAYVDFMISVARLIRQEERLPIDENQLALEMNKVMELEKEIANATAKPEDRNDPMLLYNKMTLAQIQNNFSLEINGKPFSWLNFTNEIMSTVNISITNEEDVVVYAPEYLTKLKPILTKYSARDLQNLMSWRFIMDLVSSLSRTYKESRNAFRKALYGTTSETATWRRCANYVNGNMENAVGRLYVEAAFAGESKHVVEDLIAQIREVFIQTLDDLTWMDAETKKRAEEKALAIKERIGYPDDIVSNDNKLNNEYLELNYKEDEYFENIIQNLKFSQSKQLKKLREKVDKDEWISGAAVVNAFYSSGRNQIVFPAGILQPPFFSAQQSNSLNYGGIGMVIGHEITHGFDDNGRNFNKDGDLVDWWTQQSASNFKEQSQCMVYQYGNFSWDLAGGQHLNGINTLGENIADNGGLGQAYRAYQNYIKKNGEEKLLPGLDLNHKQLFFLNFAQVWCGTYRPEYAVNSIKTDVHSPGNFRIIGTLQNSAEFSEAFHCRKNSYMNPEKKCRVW
neutral endopeptidase (NEP), sequence (P08473 whole entry): as above

Structure (SMILES)	cGMP response relative to 1 uM CNP22 (%) at 0.01 µM (NPR-B; [2]) [%]	cGMP response relative to 1 uM CNP22 (%) at 1 µM (NPR-B; [3]) [%]	resistance to cleavage at the Cys6-Phe7 bond relative to wtCNP22 (Recombinant human NEP)	half-life at 100 uM ([1]; recombinant human neutral endopeptidase (NEP)) [h]	resistance to NEP cleavage/degradation (in words) (Recombinant human NEP)	half-life at 100 uM [1] [h]	cGMP response relative to 1 uM CNP22 (%) at 0.01 µM (NPR-B; NIH3T3, […]) [%]	cGMP response relative to 1 uM CNP22 (%) at 1 µM (NPR-B; NIH3T3, […]) [%]	resistance to NEP cleavage/degradation (in words) (Recombinant human NEP; [4])	NPR-B stimulation activity / cGMP production compared with wtCNP22 (in words) (NPR-B; NIH3T3 cells)
CC[C@H](C)[C@@H]1NC(=O)[C@H](CCCNC(=N)N)NC(=O)[C@H](CC(=O)O)NC(=O)[C@H](CC(C)C)N(C)C(=O)[C@H](CCCCN)NC(=O)[C@H](CC(C)C)N(C)C(=O)CNC(=O)[C@H](Cc2ccccc2)NC(=O)[C@@H](NC(=O)CNC(=O)[C@H](CCCCN)NC(=O)[C@H](CO)NC(=O)[C@H](CC(C)C)NC(=O)CN)CSSC[C@@H](C(=O)O)NC(=O)CNC(=O)[C@H](CC(C)C)N(C)C(=O)CNC(=O)[C@H](CO)NC(=O)[C@H](CCSC)NC(=O)[C@H](CO)NC(=O)CNC1=O [L]	–	–	–	–	–	0.5	18	10	significantly shorter half-life	–
CC[C@H](C)[C@@H]1NC(=O)[C@H](CCCNC(=N)N)NC(=O)[C@H](CC(=O)O)NC(=O)[C@H](CC(C)C)NC(=O)[C@H](CCCCN)NC(=O)[C@H](CC(C)C)NC(=O)CNC(=O)[C@H](Cc2ccccc2)NC(=O)[C@@H](NC(=O)CNC(=O)[C@H](CCCCN)NC(=O)[C@H](CO)NC(=O)[C@H](CC(C)C)NC(=O)CNC(=O)[C@H](CO)NC(=O)[C@@H]2CCCN2C(=O)[C@@H]2CCCN2C(=O)[C@H](CC(C)C)NC(=O)[C@@H](NC(=O)[C@H](Cc2ccc(O)cc2)NC(=O)[C@@H](NC(=O)[C@H](CCC(N)=O)NC(=O)[C@@H]2CCCN2C(=O)[C@H](CCC(=O)O)NC(=O)[C@H](CCCNC(=N)N)NC(=O)[C@@H]2CCCN2C(=O)[C@H](CCC(N)=O)NC(=O)CN)C(C)C)[C@@H](C)O)CSSC[C@@H](C(=O)O)NC(=O)CNC(=O)[C@H](CC(C)C)NC(=O)CNC(=O)[C@H](CO)NC(=O)[C@H](CCSC)NC(=O)[C@H](CO)NC(=O)CNC1=O [CF] (H-GQPREPQVYTLPPSGLSKGCFGLKLDRIGSMSGLGC-OH; disulfide 20-36 (inferred); N-terminus and C-terminus assumed)	–	–	–	–	–	> 2.67	23 ± 9	72 ± 19	most resistant to NEP degradation; also recorded: much more resistant to NEP cleavage than CNP22	–
CC[C@H](C)[C@@H]1NC(=O)[C@H](CCCNC(=N)N)NC(=O)[C@H](CC(=O)O)NC(=O)[C@H](CC(C)C)N(C)C(=O)[C@H](CCCCN)NC(=O)[C@H](CC(C)C)N(C)C(=O)CNC(=O)[C@H](Cc2ccccc2)NC(=O)[C@@H](NC(=O)CNC(=O)[C@H](CCCCN)NC(=O)[C@H](CO)NC(=O)[C@H](CC(C)C)NC(=O)CN)CSSC[C@@H](C(=O)O)NC(=O)CNC(=O)[C@H](CC(C)C)NC(=O)CNC(=O)[C@H](CO)NC(=O)[C@H](CCSC)NC(=O)[C@H](CO)NC(=O)CNC1=O [M]	–	–	–	–	–	> 2.67	1	11	greatest resistance to NEP cleavage	–

The next lines start with results.

cGMP response relative to 1 uM CNP22 (%) at 0.01 µM (NPR-B; [2]) [%]	cGMP response relative to 1 uM CNP22 (%) at 1 µM (NPR-B; [3]) [%]	resistance to cleavage at the Cys6-Phe7 bond relative to wtCNP22 (Recombinant human NEP)	half-life at 100 uM ([1]; recombinant human neutral endopeptidase (NEP)) [h]	Structure (SMILES)	resistance to NEP cleavage/degradation (in words) (Recombinant human NEP)	half-life at 100 uM [1] [h]	cGMP response relative to 1 uM CNP22 (%) at 0.01 µM (NPR-B; NIH3T3, […]) [%]	cGMP response relative to 1 uM CNP22 (%) at 1 µM (NPR-B; NIH3T3, […]) [%]	resistance to NEP cleavage/degradation (in words) (Recombinant human NEP; [4])	NPR-B stimulation activity / cGMP production compared with wtCNP22 (in words) (NPR-B; NIH3T3 cells)
23 ± 2	93 ± 19	–	–	CC[C@H](C)[C@@H]1NC(=O)[C@H](CCCNC(=N)N)NC(=O)[C@H](CC(=O)O)NC(=O)[C@H](CC(C)C)NC(=O)[C@H](CCCCN)NC(=O)[C@H](CC(C)C)NC(=O)CNC(=O)[C@H](Cc2ccccc2)NC(=O)[C@@H](NC(=O)CNC(=O)[C@H](CCCNC(=N)N)NC(=O)[C@H](CO)NC(=O)[C@H](CC(C)C)NC(=O)CNC(=O)[C@H](CCCNC(=N)N)NC(=O)CCOCCOCCOCCOCCOCCOCCOCCOCCOCCOCCOCCOC)CSSC[C@@H](C(=O)O)NC(=O)CNC(=O)[C@H](CC(C)C)NC(=O)CNC(=O)[C@H](CO)NC(=O)[C@H](CCSC)NC(=O)[C@H](CO)NC(=O)CNC1=O [PEO12-R-CNP22, K4R] ({CH3O(CH2CH2O)11CH2CH2CO}-RGLSRGCFGLKLDRIGSMSGLGC-OH; disulfide 7-23)	much more resistant to NEP degradation than CNP22	≥ 2.67	–	–	–	–
3	35	–	–	CC[C@H](C)[C@@H]1NC(=O)[C@H](CCCNC(=N)N)NC(=O)[C@H](CC(=O)O)NC(=O)[C@H](CC(C)C)NC(=O)[C@H](CCCCN)NC(=O)[C@H](CC(C)C)NC(=O)CNC(=O)[C@H](Cc2ccccc2)NC(=O)[C@@H](NC(=O)CNC(=O)[C@H](CCCNC(=N)N)NC(=O)[C@H](CO)NC(=O)[C@H](CC(C)C)NC(=O)CNC(=O)[C@H](CCC(N)=O)NC(=O)[C@H](CCC(N)=O)NC(=O)[C@H](CC(N)=O)NC(=O)[C@H](C)NC(=O)CNC(=O)[C@@H](NC(=O)[C@H](CO)NC(=O)[C@@H](NC(=O)[C@H](CO)NC(=O)[C@@H](NC(=O)[C@H](CCC(N)=O)NC(=O)[C@@H]2CCCN2C(=O)[C@@H](NC(=O)CN)C(C)C)C(C)C)[C@@H](C)O)[C@@H](C)O)CSSC[C@@H](C(=O)O)NC(=O)CNC(=O)[C@H](CC(C)C)NC(=O)CNC(=O)[C@H](CO)NC(=O)[C@H](CCSC)NC(=O)[C@H](CO)NC(=O)CNC1=O [CL] (H-GVPQVSTSTGANQQGLSRGCFGLKLDRIGSMSGLGC-OH; disulfide 20-36 (inferred); N-terminus and C-terminus assumed)	most resistant to NEP degradation	> 2.67	–	–	–	–
40 ± 2	99 ± 13	–	–	CC[C@H](C)[C@@H]1NC(=O)[C@H](CCCNC(=N)N)NC(=O)[C@H](CC(=O)O)NC(=O)[C@H](CC(C)C)NC(=O)[C@H](CCCCN)NC(=O)[C@H](CC(C)C)NC(=O)CNC(=O)[C@H](Cc2ccccc2)NC(=O)[C@@H](NC(=O)CNC(=O)[C@H](CCCNC(=N)N)NC(=O)[C@H](CO)NC(=O)[C@H](CC(C)C)NC(=O)CNC(=O)[C@H](CCCNC(=N)N)NC(=O)[C@H](CCCNC(=N)N)NC(=O)[C@H](CC(N)=O)NC(=O)[C@H](C)NC(=O)CNC(=O)CCOCCOCCOCCOCCOCCOCCOCCOCCOCCOCCOCCOC)CSSC[C@@H](C(=O)O)NC(=O)CNC(=O)[C@H](CC(C)C)NC(=O)CNC(=O)[C@H](CO)NC(=O)[C@H](CCSC)NC(=O)[C@H](CO)NC(=O)CNC1=O [PEO12-GANRR-CNP22, K4R (CNP27)] ({CH3O(CH2CH2O)11CH2CH2CO}-GANRRGLSRGCFGLKLDRIGSMSGLGC-OH; disulfide 11-27; C-terminus assumed)	much more resistant to NEP degradation than CNP22	> 2.67	–	–	–	substantially the same NPR-B stimulation activity as CNP22
2	18	resistance or improved resistance	1.33	CC[C@H](C)[C@@H]1NC(=O)[C@H](CCCNC(=N)N)NC(=O)[C@H](CC(=O)O)NC(=O)[C@H](CC(C)C)NC(=O)[C@H](CCCCN)NC(=O)[C@H](CC(C)C)NC(=O)[C@H](C(C)(C)C)NC(=O)[C@H](Cc2ccccc2)NC(=O)[C@@H](NC(=O)CNC(=O)[C@H](CCCCN)NC(=O)[C@H](CO)NC(=O)[C@H](CC(C)C)NC(=O)CN)CSSC[C@@H](C(=O)O)NC(=O)CNC(=O)[C@H](CC(C)C)NC(=O)CNC(=O)[C@H](CO)NC(=O)[C@H](CCSC)NC(=O)[C@H](CO)NC(=O)CNC1=O [F] (H-GLSKGCF[Tle]LKLDRIGSMSGLGC-OH; disulfide 6-22 (inferred); N-terminus and C-terminus assumed)	–	–	–	–	–	–
